Each structure is given as a SMILES string. Read-outs that look alike come from different tables or passages of the source.

Test [1] deals with KB-3-1. As to the kind of experiment: Cell survival assay (SRB), KB-3-1. Type of test: cell-based, human. The note with it: Homo sapiens. The text has this:
Cells lines with previously known mechanisms of resistance. […] Res. 8: 207-218,1996); KB-3-1 (parental derived from an epidermoid carcinoma), KB-8.5, KB-V1 (Akiyama S-I, Fojo A, Hanover J A, Pastan I, Gottesman M M. Isolation and genetic characterization of human KB cell lines resistant to multiple drugs. Somatic Cell Mol. Gen., 11: 117-126,1985; Shen D-W, Cardarelli C, Hwang J, Cornwell M, Richert N, Ishii S, Pastan I, Gottesman MM. […] J. Biol. Chem., 261: 7762-7770, 1986); and HL-60 (parental derived from human leukemia) and HL60/AR (McGrath T., Center M. S. Adriamycin resistance in HL60 cells in the absence of detectable P-glycoprotein. Biochem. Res. Commun., 145:1171-1176,1987); A549 and A549.EpoB40 (He L., Yang C.-P.H., Horwitz S. B. Mutations in p-tubulin map to domains involved in regulation of microtubule stability in epothilone-resistant cell lines. Molecular Cancer Therapeutics. 1: 3-10, 2001). HCT-15 human colon carcinoma and DLD-1 human colon carcinoma are obtained from American Tissue Culture Collection. The MX-1W carcinoma is a Wyeth variant orginally obtained as MX-1 breast carcinoma from the National Cancer Institute. Cell lines selected for resistance to Representative Example 129. KB-3-1 cells are selected for resistance to Example 129 by chronically exposing cells to increasing concentrations of Example 129.
2.2. Cell Survival Assay: Standard Pharmacological Test Procedure. The concentration of candidate inhibitor required to inhibit 50% of cell growth (IC50) is done according to previously reported methods. […] Compounds are serially diluted into media as 2× stocks and 100 μl added to cells in duplicate. Compounds are incubated with cells for 3 days. At the end of the incubation period the sulforhodamine B (SRB) assay, which measures protein content as an assessment of cell survival, is performed as described previously (Skehan P, Storeng R, Scudiero D, Monks A, McMahon J, Vistica D, Warren J T, Bokesch H, Kenney S, Boyd MR. New calorimetric cytotoxicity assay for anticancer-drug screening. J Natl Cancer Inst 1990 Jul 4;82(13):1107-12) with some modification as follows. For KB-3-1 cells with 20% FCS, media is gently decanted and replaced with 200 μl of serum-free media mixed with cold 50% TCA for a final concentration of 10% TCA. The plates are incubated for 1 hr at 4° C., followed by washing 5 times in cold distilled water, then air dried overnight. The fixed cells are stained for 10 min with 80 μl of 0.04% SRB solution prepared in 1% glacial acetic acid. Stain is discarded and plates washed 5 times in 1% glacial acetic acid, then air-dried until completely dry. Stained cell product is dissolved in 150 μl of 10 mM Trizma Base and placed on a shaker for 20 minutes until fully dissolved. Absorbance is read on a Victor V multi-label plate reader (Perkin Elmer, Gaithersburg, Md.).

Test [2] concerns KB-V1 (MDR1++). As to the kind of experiment: Cell survival assay (SRB), KB-V1 (MDR1++). The following applies: for IC50: Homo sapiens, read-out: In vitro IC50 (nM) KBV1.
Test [3] relates to KB-8-5 (MDR1+). Kind of test: Cell survival assay (SRB), KB-8-5 (MDR1+). The note with it: for IC50: Homo sapiens, MDR1, read-out: In vitro IC50 (nM) KB85.
The mark [4] stands for this setting: KB 3-1, KB-3-1 cells (paclitaxel-sensitive parent), read-out: In vitro IC50 (nM) KB-3-1.

As to `CN[C@H](C(=O)N[C@H](C(=O)N(C)[C@H](/C=C(\C)C(=O)O)C(C)C)C(C)(C)C)C(C)(C)c1cccc(C(C)=O)c1` [Example 155, 3-acetyl-N,β,β-trimethyl-L-phenylalanyl-N^1-[(1S,2E)-3-carboxy-1-isopropylbut-2-enyl]-N^1,3-dimethyl-L-valinamide], the 50% inhibitory concentration (IC50) in test [1] (setting [4]) was 1.8 nM. In test [2], the “Ratio KBV1/KB” value is listed as 206 and the IC50 is 370 nM. In addition, in test [3], the “Ratio KB85/KB” value is reported as 3.2 and the IC50 was found to be 5.8 nM.
Turning to `CN[C@H](C(=O)N[C@H](C(=O)N(C)[C@H](/C=C(\C)C(=O)O)C(C)C)C(C)(C)C)C(C)(C)c1cc(C)cc(C)c1` [Example 17, N,β,β,3,5-Pentamethyl-L-phenylalanyl-N^1-[(1S,2E)-3-carboxy-1-isopropyl-2-butenyl]-N^1,3-dimethyl-L-valinamide], the IC50 stood at 1 nM in test [1] (setting [4]), 44 nM in test [2] and 1 nM in test [3]. Further, the “Ratio KBV1/KB” value in test [2] is on record as 75.7.
As to `CCOC(=O)/C(C)=C/[C@H](C(C)C)N(C)C(=O)[C@@H](NC(=O)[C@H](NC)C(C)(C)c1ccc(C)cc1)C(C)(C)C` [Example 10b, N,β,β,4-tetramethyl-D-phenylalanyl-N^1-[(1S,2E)-4-ethoxy-1-isopropyl-3-methyl-4-oxo-2-butenyl]-N^1,3-dimethyl-L-valinamide], the IC50 is 447 nM in test [1] (setting [4]), at least 3000 nM in test [2] and 1740 nM in test [3]. Besides, the “Ratio KBV1/KB” value in test [2] came out at 6.7. Besides, the “Ratio KB85/KB” value in test [3] is listed as 3.9.
For `CN[C@H](C(=O)N[C@H](C(=O)N(C)[C@H](/C=C(\C)C(=O)O)C(C)C)C(C)(C)C)C(C)(C)SCc1ccc(OC)cc1` [Example 150, 3-[(4-methoxybenzyl)thio]-N-methyl-L-valyl-N^1-[(1S,2E)-3-carboxy-1-isopropylbut-2-enyl]-N^1,3-dimethyl-L-valinamide], the half-inhibitory concentration (IC50) in test [1] (setting [4]) was found to be 5.2 nM. Also, in test [2], the “Ratio KBV1/KB” value is reported as 36.5 and the IC50 stood at 190 nM. In test [3], the “Ratio KB85/KB” value is 2.1 and the concentration for half-maximal inhibition (IC50) is 11.3 nM.
Turning to `CN[C@H](C(=O)N[C@H](C(=O)N[C@H](/C=C(\C)C(=O)O)CC(C)C)C(C)(C)C)C(C)(C)c1ccccc1.O=C(O)C(F)(F)F` [Example 93, N,β,β-trimethyl-L-phenylalanyl-N^1-[(1S,2E)-3-carboxy-1-isobutylbut-2-enyl]-3-methyl-L-valinamide Trifluoroacetic Acid], the half-maximal inhibitory concentration (IC50) in test [1] (setting [4]) amounted to 85.2 nM. In test [2], the “Ratio KBV1/KB” value came out at 35.2 and the half-maximal inhibitory concentration (IC50) was at least 3000 nM. For the same molecule, in test [3], the “Ratio KB85/KB” value turned out to be 4.0 and the IC50 was found to be 339 nM.
Taken in the same sequence, the figures for `CN[C@H](C(=O)N[C@H](C(=O)N(C)[C@H](/C=C(\C)C(=O)O)C(C)C)C(C)(C)C)C(C)(C)c1ccc(/C=C/c2ccccc2)cc1` [Example 146, N,β,β-trimethyl-4-[(E)-2-phenylvinyl]-L-phenylalanyl-N^1-[(1S,2E)-3-carboxy-1-isopropylbut-2-enyl]-N^1,3-dimethyl-L-valinamide] were 1.3 nM, 53.8, 70 nM, 2.4 and 3.1 nM.
The like results for `CCCC[C@@H](/C=C(\C)C(=O)O)N(C)C(=O)[C@@H](NC(=O)[C@@H](NC)C(C)(C)c1ccccc1)C(C)(C)C` [Example 75, N,β,β-Trimethyl-L-phenylalanyl-N^1-[(1S,2E)-1-butyl-3-carboxybut-2-enyl]-N^1,3-dimethyl-L-valinamide] were, in that order, 36 nM, 60.0, 2130 nM, 2.2 and 78 nM.
With `CN[C@H](C(=O)N[C@H](C(=O)N(C)[C@H](/C=C(\C)C(=O)O)C(C)C)C(C)(C)SCc1ccc(OC)cc1)C(C)(C)c1ccc(OC)cc1` [Example 83, N,O,β,β-tetramethyl-L-tyrosyl-N^1-[(1S,2E)-3-carboxy-1-isopropyl-2-butenyl]-3-[(4-methoxybenzyl)sulfanyl]-N^1-methyl-L-valinamide], the half-inhibitory concentration (IC50) in test [1] (setting [4]) stood at 15.8 nM. Besides, in test [2], the “Ratio KBV1/KB” value was 132.2 and the half-inhibitory concentration (IC50) came to 2090 nM. For the same molecule, in test [3], the “Ratio KB85/KB” value worked out at 2.8 and the IC50 is 43.7 nM.
The like results for `CN[C@@H](C(=O)N[C@H](C(=O)N(C)[C@H](/C=C(\C)C(=O)O)C(C)C)C(C)(C)C)C(C)(C)c1ccsc1` [Example 24, N-Methyl-3-thien-3-yl-D-valyl-N^1-[(1S,2E)-3-carboxy-1-isopropylbut-2-enyl]-N^1,3-dimethyl-L-valinamide] were, in that order, 9.5 nM, 182.9, 1740 nM, 2.4 and 22.4 nM.
Regarding `CN[C@H](C(=O)N[C@H](C(=O)N(C)[C@H](/C=C(/C)C(=O)O)C(C)C)C(C)(C)C)C(C)(C)c1ccccc1` [Example 117, N,β,β-trimethyl-L-phenylalanyl-N^1-[(1S,2Z)-3-carboxy-1-isopropyl-2-butenyl]-N^1,3-dimethyl-L-valinamide], the IC50 in test [1] (KB 3-1, read-out: In vitro IC50 (nM) KB-3-1) stood at 28 nM. Also, in test [2], the “Ratio KBV1/KB” value was determined as 93.9 and the concentration for half-maximal inhibition (IC50) is 2630 nM. For the same molecule, in test [3], the “Ratio KB85/KB” value was found to be 2.1 and the half-inhibitory concentration (IC50) stood at 58 nM.
As for `CN[C@H](C(=O)N[C@H](C(=O)N(C)[C@H](/C=C(\C)C(=O)O)C(C)C)C(C)(C)C)C(C)(C)c1cccc(O)c1` [Example 47, 3-Hydroxy-N,β,β-trimethylphenylalanyl-N^1-[(1S,2E)-3-carboxy-1-isopropyl-2-butenyl]-N^1,3-dimethyl-L-valinamide], the IC50 came out at 7 nM in test [1] (setting [4]), 2310 nM in test [2] and 37.5 nM in test [3]. Also, the “Ratio KBV1/KB” value in test [2] turned out to be 329.7. Further, in test [3], the “Ratio KB85/KB” value was found to be 5.4.
Taken in the same sequence, the figures for `CNC(C(=O)NC(C(=O)N(C)C(C=C(C)C(=O)O)CC(C)C)C(C)(C)C)C(C)(C)c1ccccc1.O=C(O)C(F)(F)F` (stereo not drawn) [Example 104, 4-{[3,3-Dimethyl-2-(3-methyl-2-methylamino-3-phenyl-butyrylamino)-butyryl]-methyl-amino}-2,6-dimethyl-hept-2-enoic Acid Trifluoroacetic Acid] were 27.7 nM, 2200 nM, 50.5 nM, 79.3 and 1.8.
In the case of `CC/C(=C\[C@H](CC(C)C)N(C)C(=O)[C@@H](NC(=O)[C@@H](NC)C(C)(C)c1ccccc1)C(C)(C)C)C(=O)O` [Example 76, N,β,β-Trimethyl-L-phenylalanyl-N^1-[(1S,2E)-3-carboxy-1-isobutyl-2-pentenyl]-N^1,3-dimethyl-L-valinamide], in test [1] (setting [4]), the half-inhibitory concentration (IC50) was 70.8 nM. Moreover, in test [2], the “Ratio KBV1/KB” value stood at 42.4 and the IC50 is at least 3000 nM. In test [3], the “Ratio KB85/KB” value was 2.4 and the half-maximal inhibitory concentration (IC50) was 169 nM.
Take `CN[C@H](C(=O)N[C@H](C(=O)N(C)[C@H](/C=C(\C)C(=O)O)C(C)C)C(C)(C)C)C(C)(C)c1ccc(Br)cc1` [Example 43, 4-bromo-N,β,β-trimethylphenylalanyl-N^1-[(1S,2E)-3-carboxy-1-isopropyl-2-butenyl]-N^1,3-dimethyl-L-valinamide]: the values for the IC50 in test [1] (setting [4]), in test [2] and in test [3] were 1.5 nM, 105 nM and 4.4 nM, respectively. The “Ratio KBV1/KB” value in test [2] was found to be 69.8. Besides, the “Ratio KB85/KB” value in test [3] is recorded as 2.9.

What is called IC50 is the midpoint of a concentration-inhibition curve.

The values above are taken from US20040121965A1, “Method of treating resistant tumors” (Wyeth Holdings Corporation, priority 2002, published 2004).
